From patent publication US20070049591A1, “Inhibitors of MAPK/Erk Kinase” (KALYPSYS, INC., priority 2005, published 2007)

target: T1, human phospho-Mek1 / non-phosphorylated Mek1 (Homo sapiens, UniProt Q02750); test: In vitro Mek1 Kinase Assay; assay type: biochemical; settings: recombinant GST/His6-tagged Mek1, 2 μM ATP, 2 hours at 30° C., PKLight luminescence readout
T1 construct: GST (N); His6 (C); purchased Upstate 14-429 (phospho-Mek1) or 14-420 (non-phosphorylated Mek1)
Procedure: In vitro Mek1 Kinase Assay
2.5 μl of Mek1 kinase buffer (10 mM MOPS [pH 7.2], 25 mM sodium glycerophosphate, 5 mM EGTA [pH 8.0], 1 mM sodium orthovanadate, 1 mM dithiothreitol, 10 mM MgCl2, 0.1% Brij-35, 0.3 mg/ml bovine serum albumin) containing either 5 ng of high specific activity, recombinant N-terminal GST-tagged, C-terminal His6-tagged human phospho-Mek1 (Upstate Cat. 14-429), or 200 ng of low specific activity, non-phosphorylated Mek1 (Upstate Cat. 14-420), is dispensed into one well of a 1536 multi-well white solid plate. 50 nl of 100× concentration of test compound in dimethyl sulfoxide (DMSO) is dispensed to the well by passive pin transfer and incubated for 15 minutes at room temperature (22° C.). 2.5 μl of Mek1 kinase buffer containing 2 μM ATP is then dispensed and the kinase reaction is allowed to incubate at 30° C. for 2 hours. The assay plates are lidded and maintained in a humidified environment. After 2 hours, 2.5 μl of PKLight protein kinase assay reagent (Cambrex) is dispensed. After an additional 5 minute incubation at room temperature, luminescence activity is measured on a suitable multi-mode plate reader. Inhibition of Mek1 kinase causes an associated increase in luminescence activity that is proportional to compound concentration. Negative control activity is measured with DMSO lacking any test compound. Positive control activity is measured with (R)—N— (2,3-dihydroxypropoxy)-3,4-fluoro4-iodophenylamino)benzamide [Thompson, N. and Lyons, J., Curr Opin Pharmacol, 5:350-356, 2005 (PD-0325901)]. Efficacy is measured as a percentage of positive control activity.

T1 sequence (Q02750 whole entry): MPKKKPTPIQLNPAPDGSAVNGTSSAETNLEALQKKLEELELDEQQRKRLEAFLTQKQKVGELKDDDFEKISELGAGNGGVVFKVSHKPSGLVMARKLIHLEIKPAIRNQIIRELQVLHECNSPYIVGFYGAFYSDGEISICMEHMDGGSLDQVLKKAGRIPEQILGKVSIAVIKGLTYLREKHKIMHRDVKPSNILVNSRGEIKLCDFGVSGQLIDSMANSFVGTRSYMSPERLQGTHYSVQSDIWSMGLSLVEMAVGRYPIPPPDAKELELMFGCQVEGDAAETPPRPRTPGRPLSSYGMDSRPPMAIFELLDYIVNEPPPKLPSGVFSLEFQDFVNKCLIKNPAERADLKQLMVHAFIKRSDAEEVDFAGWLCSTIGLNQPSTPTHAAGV

`c1ccc2c(c1)[nH]c1ncnc(N3CCOCC3)c12` [Example 1, 4-(9H-pyrimido[4,5-b]indol-4-yl)morpholine] and `c1ccc2c(c1)CCN2c1ncnc2[nH]cnc12` [Example 5, 6-(indolin-1-yl)-9H-purine] cannot be ordered by IC50: no more than 10 µM for the first, greater than 10 µM for the second.

`Cc1c([N+](=O)[O-])c2ccc(O)cc2n1-c1ccccc1` [Example 2, 2-methyl-3-nitro-1-phenyl-1H-indol-6-ol] and `COc1cc(OC)c2c(c1)ncc1c(C)nn(-c3ccccc3)c12` [Example 7, 7,9-dimethoxy-3-methyl-1-phenyl-1H-pyrazolo[4,3-c]quinoline] cannot be ordered by IC50: no more than 10 µM for the first, no more than 10 µM for the second.

`CC(C)(C)n1nc(-c2ccc(F)cc2)c2c(N)ncnc21` [Example 3, 1-tert-butyl-3-(4-fluorophenyl)-1H-pyrazolo[3,4-d]pyrimidin-4-amine] and `O=C(O)c1ccc(-c2cnc3ccc(NCc4ccc(F)cc4)nn23)cc1` [Example 10, 4-(6-(4-fluorobenzylamino)imidazo[1,2-b]pyridazin-3-yl)benzoic acid] cannot be ordered by IC50: no more than 10 µM for the first, no more than 10 µM for the second.

`CCN(c1ncnc2[nH]cnc12)C1CCCCC1` [Example 4, N-cyclohexyl-N-ethyl-9H-purin-6-anime] and `c1nc(NC2CCCC2)c2nc[nH]c2n1` [Example 16, N-cyclopentyl-9H-purin-6-amine] cannot be ordered by IC50: no more than 10 µM for the first, greater than 10 µM for the second.

`CC1CCN(c2ncnc3[nH]cnc23)CC1` [Example 6, 6-(4-methylpiperidin-1-yl)-9H-purine] and `c1nc2nc[nH]c(NC3CCCCCC3)c-2n1` [Example 17, N-cycloheptyl-9H-purin-6-amine] cannot be ordered by IC50: greater than 10 µM for the first, greater than 10 µM for the second.

`CC(=O)c1ccc(-c2cnc3ccc(NCc4cccs4)nn23)s1` [Example 8, 1-(5-(6-(thiophen-2-ylmethylamino)imidazo[1,2-b]pyridazin-3-yl)thiophen-2-yl)ethanone] and `O=C(O)c1ccc(-c2cnc3ccc(NCc4cccs4)nn23)cc1` [Example 9, 4-(6-(thiophen-2-ylmethylamino)imidazo[1,2-b]pyridazin-3-yl)benzoic acid] cannot be ordered by IC50: greater than 10 µM for the first, no more than 10 µM for the second.

`Cn1cc(-c2cnc3ccc(NCc4cccs4)nn23)cn1` [Example 11] and `CCCNc1ccc2ncc(-c3ccc(C(=O)O)cc3)n2n1` [Example 22, 4-(6-(propylamino)imidazo[1,2-b]pyridazin-3-yl)benzoic acid] cannot be ordered by IC50: no more than 10 µM for the first, greater than 10 µM for the second.

`N#Cc1ccc(-c2cnc3ccc(NC4CCOCC4)nn23)cc1` [Example 12, 4-(6-(tetrahydro-2H-pyran-4-ylamino)imidazo[1,2-b]pyridazin-3-yl)benzonitrile] and `O=C(O)c1ccc(-c2cnc3ccc(NC4CCOCC4)nn23)cc1` [Example 13, 4-(6-(tetrahydro-2H-pyran-4-ylamino)imidazo[1,2-b]pyridazin-3-yl)benzoic acid] cannot be ordered by IC50: no more than 10 µM for the first, no more than 10 µM for the second.

`COc1cncc(-c2cnc3ccc(NC4CCOCC4)nn23)c1` [Example 14, 3-(5-methoxypyridin-3-yl)-N-(tetrahydro-2H-pyran-4-yl)imidazo[1,2-b]pyridazin-6-amine] and `O=C(O)c1ccc(-c2cnc3ccc(NC4CCC(O)CC4)nn23)cc1` (stereo not shown) [Example 15, 4-(6-(4-hydroxycyclohexylamino)imidazo[1,2-b]pyridazin-3-yl)benzoic acid] cannot be ordered by IC50: greater than 10 µM for the first, no more than 10 µM for the second.

`N#Cc1ccc(-c2cnc3ccc(NCCCO)nn23)cc1` [Example 18, 4-(6-(3-hydroxypropylamino)imidazo [1,2-b]pyridazin-3-yl)benzonitrile] and `N#Cc1ccc(-c2cnc3ccc(NCCc4ccccn4)nn23)cc1` [Example 19, 4-(6-(2-(pyridin-2-yl)ethylamino)imidazo[1,2-b]pyridazin-3-yl)benzonitrile] cannot be ordered by IC50: no more than 10 µM for the first, no more than 10 µM for the second.

`N#Cc1ccc(-c2cnc3ccc(NCCc4cccnc4)nn23)cc1` [Example 20, 4-(6-(2-(pyridin-3-yl)ethylamino)imidazo[1,2-b]pyridazin-3-yl)benzonitrile] and `CN(C)CCNc1ccn2ncc(-c3ccc(Cl)cc3)c2n1` [Example 21, N1-(3-(4-chlorophenyl)pyrazolo[1,5-a]pyrimidin-5-yl)-N2,N2-dimethylethane-1,2-diamine] cannot be ordered by IC50: no more than 10 µM for the first, greater than 10 µM for the second.
